Test: Pre-clinical PET biodistribution
Type: in vivo
Conditions: Wistar rats, radiolabel carried on [18F]RI-OR2-TAT
Description: Wistar rats (n =3) were anaesthetised using isoflurane (induction 4% and maintained 1.5%) in 70% N2O and 30% O2 mixture. […] All scans were carried out using a Siemens Inveon® PET-CT scanner. The acquisition protocol parameters consisted of a preliminary CT scan to attain attenuation correction factors followed by a 1 h PET acquisition with time coincidence window of 3.432 ns and levels of energy discrimination set between 350 keV and 650 keV. Images were reconstructed and analysed as described elsewhere ([Boutin et al., 2015]).

stability to defluorination (bone uptake of radioactivity): relatively little bone uptake
SMILES: O=Cc1cccnc1[18F] [[^18F]FPCA, 2-[^18F]-Fluoro-3-pyridinecarboxaldehyde]

Source: article PMC5034901, “Development & automation of a novel [^18F]F prosthetic group, 2-[^18F]-fluoro-3-pyridinecarboxaldehyde, and its application to an amino(oxy)-functionalised Aβ peptide” (Applied Radiation and Isotopes, 2016)
